Data set [1] can be described thus: RP, Waters ACQUITY UPLC HSS T3, 150 × 2.1 mm, 1.8 µm; A: water + 0.1% formic acid; B: acetonitrile + 0.1% formic acid; gradient (min/%B) 0/5 1/5 16/95 18/95. The settings on record: stereoisomer not certain.
Data set [2] in a line: RP, Waters ACQUITY UPLC HSS T3, 100 × 1 mm, 1.8 µm; A: water + 0.1% formic acid, pH 3; B: acetonitrile + 0.1% formic acid, pH 3; gradient (min/%B) 0/5 1/5 16/95 18/95 20/5. The settings on record: stereoisomer not certain.

The values below come from the RepoRT retention time repository (doi:10.1007/s00216-013-6954-6).

Each structure is given as a SMILES string.

In the case of `CC(CCC(=O)NCCS(=O)(=O)O)C1CCC2C3C(O)CC4CC(O)CCC4(C)C3CC(O)C12C` (stereo unspecified), the LC retention time in data set [1] amounted to 7.57 min.
In the case of `CSCCC(N)C(=O)O` (stereo unspecified), in data set [1], the LC retention time came to 0.643 min.
Take `O=C(O)C1CCCN1` (stereo unspecified): in data set [1], the LC retention time came out at 0.482 min.
`O=Cc1c[nH]c2cccc(O)c12`: the LC retention time in data set [1] was determined as 5.1 min.
Regarding `CCC(C)C(NC(=O)C(N)Cc1ccc(O)cc1)C(=O)O` (stereo not drawn) [H-Tyr-Ile-OH], the LC retention time in data set [2] stood at 2.9 min.
As to `O=C(O)CCCCCCCC(=O)O` [Azelaic acid], the LC retention time in data set [2] is 5.35 min.
In the case of `O=c1[nH]cnc2c1ncn2C1OC(CO)C(O)C1O` (stereo unspecified) [Inosine], the LC retention time in data set [2] stood at 0.839 min.
Regarding `NC(N)=NCCCC(N)C(=O)O` (stereo unspecified), the LC retention time in data set [1] amounted to 0.413 min.
For `CSCCC(N)C(=O)O` (stereo unspecified) [Methionine], the LC retention time in data set [2] was found to be 0.643 min.
As for `COn1cc(CN)c2ccccc21` [1-MeO-I3CH2NH2], in data set [2], the LC retention time was 3.7 min.
On to `O=Cc1c[nH]c2ccccc12`, for which the LC retention time in data set [1] amounted to 4.8 min.
As to `O=C(O)CCCC(=O)O` [Glutaric acid], the LC retention time in data set [2] was 1.14 min.
The same measure, in the same setting: the same measure for `Cn1c(=O)c2c(ncn2C)n(C)c1=O` [Caffeine]: 3.46 min; for `CC(C(=O)O)C(=O)O` [Methylmalonic acid]: 0.733 min.
As to `CCC(C)C(N)C(=O)NC(CC(C)C)C(=O)O` (stereo not drawn) [H-Ile-Leu-OH], the LC retention time in data set [2] came to 3.4 min.
Take `O=C(O)CCCCC(=O)O` [Adipic acid]: in data set [2], the LC retention time was determined as 2.33 min.
As to `O=C(O)CCCCC(=O)O`, in data set [1], the LC retention time is 2.33 min.
With `CC(CCC(=O)O)C1CCC2C3C(O)CC4CC(O)CCC4(C)C3CCC12C` (stereo unspecified) [Chenodeoxycholic acid], the LC retention time in data set [2] amounted to 10.5 min.
For `O=C(O)CCCCCC(=O)O`, the LC retention time in data set [1] came to 3.47 min.
For `CCC(C)C(NC(=O)C(N)Cc1ccc(O)cc1)C(=O)O` (stereo unspecified), the LC retention time in data set [1] is 2.9 min.
Turning to `CC(C)CC(NC(=O)C(N)Cc1ccccc1)C(=O)O` (stereo unspecified), the LC retention time in data set [1] came to 4.1 min.
Still for that read-out and setting: the same measure for `CC(CCC(=O)O)C1CCC2C3C(O)CC4CC(O)CCC4(C)C3CC(O)C12C` (stereo unspecified): 8.94 min.
Turning to `Nc1ncnc2nc[nH]c12`, the LC retention time in data set [1] is 0.525 min.
On to `COn1cc(CN)c2ccccc21`, for which, in data set [1], the LC retention time is 3.7 min.
Consider `CCC(C)C(N)C(=O)NC(C(=O)O)C(C)CC` (stereo unspecified), for which, in data set [1], the LC retention time was determined as 3.1 min.
Take `CC(CCC(=O)NCCS(=O)(=O)O)C1CCC2C3C(O)CC4CC(O)CCC4(C)C3CC(O)C12C` (stereo unspecified) [Taurocholic acid]: in data set [2], the LC retention time turned out to be 7.57 min.
For the compound `Nc1nc2c(ncn2C2OC(CO)C(O)C2O)c(=O)[nH]1` (stereo unspecified) [Guanosine], the LC retention time in data set [2] stood at 1.1 min.
Still for that read-out and setting: next, `COc1cc(C=CCO)cc(OC)c1OC1OC(CO)C(O)C(O)C1O` (stereo unspecified) [Syringin]: 3.2 min; `CCC(C)C(NC(=O)C(N)CC(C)C)C(=O)O` (stereo not drawn) [H-Leu-Ile-OH]: 3.3 min.
`CC(C)CC(N)C(=O)O` (stereo unspecified) [Leucine]: the LC retention time in data set [2] was found to be 0.795 min.
Consider `Cc1cn(C2CC(O)C(CO)O2)c(=O)[nH]c1=O` (stereo unspecified), for which, in data set [1], the LC retention time stood at 1.6 min.
On to `COc1cc(C=CCO)ccc1OC1OC(CO)C(O)C(O)C1O` (stereo unspecified) [Coniferin], for which the LC retention time in data set [2] is 3 min.
As for `CC(C)C(N)C(=O)NC(Cc1ccccc1)C(=O)O` (stereo not drawn) [H-Val-Phe-OH], the LC retention time in data set [2] came to 3.3 min.
Regarding `Cc1cc2nc3c(=O)[nH]c(=O)nc-3n(CC(O)C(O)C(O)CO)c2cc1C` (stereo unspecified), in data set [1], the LC retention time turned out to be 3.92 min.
Turning to `CC(C(=O)O)C(=O)O`, the LC retention time in data set [1] amounted to 0.733 min.
For `O=C(O)C1Cc2c([nH]c3ccccc23)CN1` (stereo unspecified) [3-Carboxy-1,2,3,4-tetrahydro-2-carboline], the LC retention time in data set [2] was determined as 3.1 min.
In the case of `CC(C)CC(N)C(=O)N1CCCC1C(=O)O` (stereo not drawn) [H-Leu-Pro-OH], the LC retention time in data set [2] was 2.6 min.
Regarding `COc1cc2ccc(=O)oc2cc1OC1OC(CO)C(O)C(O)C1O` (stereo unspecified), the LC retention time in data set [1] is 3.3 min.
In the case of `CC(C)CC(N)C(=O)O` (stereo unspecified), the LC retention time in data set [1] is 0.795 min.
Still for that read-out and setting: the same measure for `O=c1[nH]cnc2c1ncn2C1OC(CO)C(O)C1O` (stereo unspecified): 0.839 min.
`O=C(O)c1c[nH]c2ccccc12` [Indole-3-carboxylic acid (I3CO2H)]: the LC retention time in data set [2] came out at 4.7 min.
`O=C(O)CCCC(=O)O`: in data set [1], the LC retention time turned out to be 1.14 min.
On to `Nc1ncnc2nc[nH]c12` [Adenine], for which the LC retention time in data set [2] amounted to 0.525 min.
The same measure, in the same setting: the same measure for `CC12CCC(=O)C=C1CCC1C2C(O)CC2(C)C1CCC2(O)C(=O)CO` (stereo unspecified) [hydrocortisone, cortisol]: 6.56 min.
Consider `CC(C)CC(N)C(=O)N1CCCC1C(=O)O` (stereo unspecified), for which the LC retention time in data set [1] is 2.62 min.
Regarding `CC(CCC(=O)NCC(=O)O)C1CCC2C3C(O)CC4CC(O)CCC4(C)C3CC(O)C12C` (stereo unspecified), the LC retention time in data set [1] stood at 7.92 min.
With `CCCCCCCCC=CCCCCCCCC(=O)OCC(O)COP(=O)([O-])OCC[N+](C)(C)C` (stereo unspecified) [lysoPC(18:1(9Z)/0:0)], the LC retention time in data set [2] was 12 min.
Same read-out and setting: the same measure for `O=C(O)CCCCCC(=O)O` [Pimelic acid]: 3.47 min.
For `COc1cc2ccc(=O)oc2cc1O`, in data set [1], the LC retention time came to 4.5 min.
Regarding `O=C(O)C1Cc2c([nH]c3ccccc23)CN1` (stereo unspecified), the LC retention time in data set [1] was 3.1 min.
`O=C(O)C(O)Cc1ccccc1` (stereo unspecified) [phenyllactic acid]: the LC retention time in data set [2] was 4.37 min.
As for `O=c1cc[nH]c(=O)[nH]1`, in data set [1], the LC retention time stood at 0.638 min.
On to `CCC(C)C(NC(=O)C(N)Cc1ccccc1)C(=O)O` (stereo not drawn) [H-Phe-Ile-OH], for which, in data set [2], the LC retention time came to 3.8 min.
Regarding `O=C(O)CCCCCCCC(=O)O`, in data set [1], the LC retention time was found to be 5.35 min.
Regarding `CC(C)C(NC(=O)C(N)Cc1ccccc1)C(=O)O` (stereo unspecified), the LC retention time in data set [1] amounted to 3 min.
Still for that read-out and setting: next, `CCC(C)C(NC(=O)C(N)CC(C)C)C(=O)O` (stereo unspecified): 3.3 min.
For `CSCCCCCCCC(N)C(=O)O` (stereo unspecified) [Pentahomo-Met], in data set [2], the LC retention time amounted to 4.6 min.
Turning to `NCC(=O)NC(Cc1ccccc1)C(=O)O` (stereo unspecified), the LC retention time in data set [1] is 2.3 min.
Turning to `CCC(C)C(N)C(=O)O` (stereo unspecified) [Isoleucine], in data set [2], the LC retention time stood at 0.795 min.
Take `NC(Cc1ccccc1)C(=O)NCC(=O)O` (stereo unspecified): the LC retention time in data set [1] worked out at 1.7 min.
For `CCC(C)C(NC(=O)C(N)Cc1ccccc1)C(=O)O` (stereo unspecified), the LC retention time in data set [1] is 3.8 min.
With `CCCCCCCCC=CCCCCCCCC(=O)OCC(O)COP(=O)(O)OCC[N+](C)(C)C` (stereo unspecified), in data set [1], the LC retention time amounted to 12 min.
For `CC12CCC(=O)C=C1CCC1C2C(=O)CC2(C)C1CCC2(O)C(=O)CO` (stereo unspecified), the LC retention time in data set [1] worked out at 6.61 min.
Take `O=C(O)Cc1ccccc1`: the LC retention time in data set [1] stood at 3.6 min.
On to `O=c1cc[nH]c(=O)[nH]1` [Uracil], for which the LC retention time in data set [2] was 0.638 min.
With `CSCCCCCCCCC(N)C(=O)O` (stereo unspecified), the LC retention time in data set [1] was 5.4 min.
Regarding `COc1cc2ccc(=O)oc2cc1OC1OC(CO)C(O)C(O)C1O` (stereo unspecified) [Scopolin], in data set [2], the LC retention time was determined as 3.3 min.
As to `O=c1ccc2cc(OC3OC(CO)C(O)C(O)C3O)c(O)cc2o1` (stereo unspecified) [Esculin], in data set [2], the LC retention time stood at 2.9 min.
With `NC(=O)NCCCC(N)C(=O)O` (stereo unspecified) [Citrulline], in data set [2], the LC retention time was determined as 0.457 min.
As for `O=c1[nH]c(=O)c2[nH]c(=O)[nH]c2[nH]1`, the LC retention time in data set [1] was determined as 0.643 min.
As to `COc1cc(C=CCO)cc(OC)c1OC1OC(CO)C(O)C(O)C1O` (stereo unspecified), the LC retention time in data set [1] was 3.2 min.
For the compound `CCC(C)C(N)C(=O)NC(CC(C)C)C(=O)O` (stereo unspecified), the LC retention time in data set [1] turned out to be 3.4 min.
Same read-out and setting: next, `NCc1c[nH]c2ccccc12`: 1.8 min; `O=c1ccc2cc(OC3OC(CO)C(O)C(O)C3O)c(O)cc2o1` (stereo unspecified): 2.9 min; `CC(C)C(N)C(=O)NC(Cc1ccccc1)C(=O)O` (stereo unspecified): 3.3 min.
For the compound `O=C(O)C(O)Cc1ccccc1` (stereo unspecified), the LC retention time in data set [1] came to 4.37 min.
Same read-out and setting: next, `Cn1cnc(CC(N)C(=O)O)c1` (stereo unspecified): 0.407 min; `NC(=O)NCCCC(N)C(=O)O` (stereo unspecified): 0.457 min.
Regarding `COc1cc(C=CCO)ccc1OC1OC(CO)C(O)C(O)C1O` (stereo unspecified), in data set [1], the LC retention time amounted to 3 min.
In the case of `O=C(O)c1c[nH]c2ccccc12`, the LC retention time in data set [1] is 4.7 min.
`COc1cc(CC2COC(c3ccc(O)c(OC)c3)C2CO)ccc1O` (stereo unspecified): the LC retention time in data set [1] is 5.6 min.
Still for that read-out and setting: next, `CCC(C)C(N)C(=O)NC(Cc1ccccc1)C(=O)O` (stereo unspecified): 3.9 min; `CC(CCC(=O)O)C1CCC2C3C(O)CC4CC(O)CCC4(C)C3CCC12C` (stereo unspecified): 10.5 min; `CCC(C)C(N)C(=O)O` (stereo unspecified): 0.795 min.
Turning to `NCCS(=O)(=O)O`, the LC retention time in data set [1] was 0.446 min.
Same read-out and setting: the same measure for `CCCCCCCCCCCCCCCC(=O)OCC(O)COP(=O)([O-])OCC[N+](C)(C)C` (stereo unspecified): 11.6 min; for `CC(C)CC(N)C(=O)NC(CC(C)C)C(=O)O` (stereo unspecified): 3.6 min; for `O=C1CCC(C(=O)O)N1` (stereo unspecified): 0.687 min.
For the compound `CC12CCC(=O)C=C1CCC1C2C(O)CC2(C)C1CCC2(O)C(=O)CO` (stereo unspecified), the LC retention time in data set [1] turned out to be 6.56 min.
Consider `CSCCCCCCCC(N)C(=O)O` (stereo unspecified), for which the LC retention time in data set [1] amounted to 4.6 min.
As to `CC(C)CC(NC(=O)C(N)Cc1ccc(O)cc1)C(=O)O` (stereo unspecified), the LC retention time in data set [1] is 3.2 min.
Still for that read-out and setting: next, `Cn1c(=O)c2c(ncn2C)n(C)c1=O`: 3.46 min; `COc1cccc2[nH]cc(CN)c12`: 3.2 min.
Same read-out and setting: the same measure for `Nc1nc2c(ncn2C2OC(CO)C(O)C2O)c(=O)[nH]1` (stereo unspecified): 1.1 min; for `CC(C)CC(N)C(=O)NC(Cc1ccccc1)C(=O)O` (stereo unspecified): 4.2 min; for `Nc1ccc(C(=O)O)cc1`: 1.95 min.
For the compound `CS(=O)CCCCCCCCN=C=S` (stereo unspecified), the LC retention time in data set [1] is 8.1 min.
`O=C(O)CNC(=O)c1ccccc1`: the LC retention time in data set [1] turned out to be 3.39 min.
Still for that read-out and setting: the same measure for `CC(CCC(=O)O)C1CCC2C3CCC4CC(O)CCC4(C)C3CC(O)C12C` (stereo unspecified): 10.7 min; for `CC(C)CC(NC(=O)C(N)C(C)C)C(=O)O` (stereo unspecified): 2.7 min.
Still for that read-out and setting: next, `CC(C)CC(N)C(=O)NC(Cc1ccc(O)cc1)C(=O)O` (stereo unspecified): 2.8 min.
